A melting point compilation (Tetko et al.; mined from patent text by program, amines drawn as free bases though some values may be those of a salt)

melting point | Compound
115 to 120 °C | COCON=C(C(C)=O)C(=O)OC
209 °C | O=C(O)c1sc(-c2cccnc2)nc1C(F)(F)F
81 to 83 °C | CSCCSc1c(O)cc(C)oc1=O
> 350 °C | O=c1[nH]c2ccc(Cl)cc2c2nc(-c3ccc(O)cc3)nn12
> 300 °C | O=C(O)/C=C/c1ccc(-c2nc3c(=O)n(CC4CCC4)c(=O)n(CC4CCC4)c3[nH]2)cc1
152 to 153 °C | COc1cccc2c(CN3CC=C(/C=C/c4ccccc4)CC3)coc12
152 to 154 °C | CCOC(=O)c1c[nH]c2cc(C)cc(O)c12
95 to 97 °C | CCCCC(CC)Cn1c2cc(Br)ccc2c2ccc(Br)cc21 (stereo unspecified)
242 °C | OC1Cn2ccnc2C(=C2CCN(CCc3ccc(OCc4ccc5ccccc5n4)cc3)CC2)c2ccsc21 (stereo unspecified)
95 to 98 °C | CC(=C1SCSCS1)c1ccc(OCCCN2CCOCC2)cc1
130 to 132 °C | O=C(O)C1CCc2ccccc2N1C(=O)CCS (stereo unspecified)
68 to 71 °C | CC(C)(C)CC(C)(C)c1ccc(OS(=O)(=O)c2ccc(C(C)(C)C)cc2)cc1
101 °C | C=C1SC(SCc2ccccc2C(=COC)C(=O)OC)=NC1(C)C
159 to 160 °C | COc1ccc(S(=O)(=O)Nc2cccnc2Nc2ccccc2OC)cc1
245 to 246 °C | CC(C)(C)OC(=O)N1CCN(c2nc(N)nc3nc(N)c(-c4ccccc4)nc23)CC1
132 to 133 °C | O=S(=O)(c1ccccc1)n1cc(-c2ccnc(N[C@H]3CC[C@H](O)CC3)n2)c2ccccc21
123 to 125 °C | O=C1C2CCCCC2=Nc2ccccc2N1Cc1ccccc1 (stereo unspecified)
255 to 258 °C | NC(=O)c1sc2ncnc(-c3cccc(NC(=O)Cc4ccccc4)c3)c2c1N
173 to 176 °C | CN(C)C(=O)/C=C/CSc1nc(N)cc(Cl)n1
106 to 108 °C | CC(=O)N1CCN(c2cncc(Cl)n2)CC1
220 to 222 °C | CNS(=O)(=O)c1ccc(Nc2cc(-n3ccc(C(F)(F)F)n3)c3ccccc3n2)cc1
151 to 152 °C | CC(C)NC(=O)N1CC(Oc2ccc(C(F)(F)F)cc2)C1
228 to 230 °C | O=C1CCC(N2Cc3c(OCc4cc(CN5CCOCC5)no4)cccc3C2=O)C(=O)N1 (stereo unspecified)
141 to 142 °C | Nc1cc(F)c(-c2cccnc2)c(F)c1

melting point | Compound
110 to 111 °C | Cc1cn(C(C)(C)C(=O)N(C)C)nc1-c1ccc(Cl)cc1Cl
15 to 60 °C | Clc1cc(CBr)ccc1-c1ccccc1C1=NNN(C(c2ccccc2)(c2ccccc2)c2ccccc2)N1
269 °C | Cc1ccc2c(c1)c(=O)n1nc(C(=O)O)cc1n2C
194 to 196 °C | CCOc1ccccc1-c1nc2cc3nc[nH]c3cc2c(=O)[nH]1
176 to 177 °C | COc1ccc(S(=O)(=O)C2(C(=O)NO)CCN(Cc3ccc(C)cc3)CC2)cc1
129 to 133 °C | COCCOCCC1CCCCCc2c1oc(=O)c(C(c1ccccc1)C1CC1)c2O (stereo unspecified)
210 to 211 °C | COC(=O)c1ccc(-c2nnc(-c3ccc(C(C)(C)C)cc3)o2)cc1
140 to 142 °C | CCCCCCc1ccc(-c2c(C#N)nn(C(C)(C)Cc3ccc(C)cc3)c2O)cc1
168 to 169 °C | CCCn1nc2c(N)nc3ccccc3c2c1CC(C)(C)NC(=O)c1ccc(F)cc1
178 to 180 °C | CCCc1ccnc2c(=O)[nH]c(-c3cc(S(=O)(=O)N4CCNCC4)ccc3OCC)nc12
172 to 174 °C | COc1ccc2c(c1)c(Cc1nc(-c3ccc(F)cc3)cs1)c(C)n2C(=O)c1ccc(Cl)cc1
136 to 137 °C | COc1ccc(CNc2nc(COCC(=O)O)nc3sc4c(c23)CCCC4)cc1Cl
142 to 144 °C | CC(O)C(Oc1ccc(NC(=O)NC(=O)c2ccccc2Cl)cc1)c1ccccc1 (stereo unspecified)
122 to 124 °C | OCC1Oc2cccc(F)c2OC1CO (stereo unspecified)
191 to 192 °C | O=C(O)c1ccc(-c2ccc(Cl)cc2)cc1
137 to 138 °C | CC(=O)N[C@@H](CSC(=O)c1ccccc1)C(=O)NCCSC(=O)C(C)C
222 to 224 °C | CNC(=O)Nc1ccc(OCC2CCN(c3ccncc3)CC2)cc1
133 to 135 °C | CCCCOC(=O)c1ccc(NCc2cc(Br)ccc2OCc2ccccc2)nn1
65 to 70 °C | O=C(O)c1ccc(NC(=O)C(CS)Cc2ccccc2)cc1Cl (stereo unspecified)
215 to 217 °C | COc1ccc(-c2cc(C)cn2-c2ccc(S(=O)(=O)NC(C)=O)cc2)cc1
203 to 205 °C | O=C(O)Cc1cc(Cc2nc3c(F)c(F)cc(F)c3s2)cc(C(=O)O)c1
165 to 167 °C | COC(=O)c1cc2c(I)cccc2cn1
133 to 138 °C | COc1cc(C=O)ccc1OC(=O)NCCc1ccccc1
111 to 114 °C | CCCc1c(OCC(O)CNc2cccc(N)c2C#N)ccc(C(C)=O)c1O (stereo unspecified)

melting point | Compound
158 to 160 °C | Fc1ccc(CNc2nc3ccccc3n2-c2ccc(F)c(F)c2)cc1F
82 to 84 °C | COc1ccc(CNc2ccc(Cl)cc2C(=O)C(F)(F)F)cc1OC
256 to 257 °C | COc1ccc2c(=O)n3c(cc2c1)S(=O)(=O)CCC3
169 to 172 °C | CC(C)=CCn1ncc(-c2ccc(S(C)(=O)=O)cc2)c(-c2ccc(F)cc2)c1=O
154 to 155 °C | CCOCc1cc(OC)c(-c2ccc(C[C@H](NC(=O)c3c(F)cccc3F)C(=O)O)cc2)c(OC)c1
138 to 140 °C | CCN(CCCP(=O)(O)O)S(=O)(=O)C(F)(F)C(F)(F)C(F)(F)C(F)(F)F
139 to 140 °C | CC(=O)CSc1ccc(Cl)cc1C(=O)O
180 to 182 °C | COc1cc2cc(CO)c(CO)c(C)c2cc1OC
150 to 152 °C | COc1nc2ccc(Br)cc2c2c1Cc1ccccc1-2
129 to 131 °C | Clc1cc(Cl)c2cccc3c2c1N=C3NCCCCCCCCCCn1ccnc1
164 to 165 °C | COc1ccc(O)c(OC)c1-c1ccc(C[C@H](NC(=O)c2c(Cl)cccc2Cl)C(=O)O)cc1
59 °C | CCOC(COc1ccc2c(-c3ccccc3F)noc2c1Cl)OCC
92 °C | CC1(C)CCCC(=Cc2ccc(Cl)cc2)C1=O
115 to 116 °C | CCCNC(=O)[C@H](C)C[C@H](O)[C@H](CC1CCCCC1)NC(=O)OC(C)(C)C
126 to 128 °C | Cc1ccccc1-c1ccc(C(=O)N2Cc3ccc(C(=O)NCc4ccccc4C(F)(F)F)n3Cc3ccccc32)cc1C
136 to 140 °C | CCN1CCC(CNC(=O)c2cc(Cl)c(N)[nH]c2=O)CC1
96 to 97 °C | COc1cccc(CN2Cc3cc(OC)c(OCc4ccccc4)cc3C(OC)C2)c1 (stereo unspecified)
90 to 92 °C | CCCC(CCOc1c(-c2ccc(S(C)(=O)=O)cc2)cnn(-c2ccc(F)cc2)c1=O)SC (stereo unspecified)
118 to 120 °C | CCCc1cc2cc(O)c(F)cc2c(Oc2ccc(/C=C/C(=O)O)cc2)c1-c1ccccc1
136 to 139 °C | Nc1nc(Cc2ccccc2)ncc1C=S
58 to 59 °C | [N-]=[N+]=N[C@@H]1c2cc(F)ccc2Oc2ccccc2[C@H]1C[C@@H](O)COC(c1ccccc1)(c1ccccc1)c1ccccc1
203 to 204 °C | COc1cccc(C(=O)Nc2ccc3c(c2)CCC3=O)c1
68 to 69 °C | O=CC=Cc1cnn(-c2c(Cl)cc(C(F)(F)F)cc2Cl)n1
150 to 152 °C | COc1ccc(COc2ccc(CSc3ccc(OCC(=O)O)c(C)c3)cc2)cc1

melting point | Compound
175 °C | CC(C)OC(=O)C1(c2onc(-c3ccc(O)cc3)c2-c2ccccc2)CC1
223 to 226 °C | CCN(CC)C(=O)COc1ccc(S(=O)(=O)c2ccc(O)cc2)cc1
120 to 121 °C | O=C(O)c1ccc(OCCCCl)cn1
77 to 78 °C | c1csc(-c2nc(CCOc3ccc(CCCn4ccnc4)cc3)co2)c1
157 to 158 °C | CCOC(=O)c1ccc(-c2nc(COc3ccc(CCl)cc3OCC)c(C)o2)s1
65 to 68 °C | CCCCCC(C(=O)O)c1ccc(Cl)cc1Cl (stereo unspecified)
136 to 139 °C | CCOC(=O)c1ncn(-c2nc(C)c(Cl)s2)c1S(N)(=O)=O
137 to 138 °C | Cc1c(NC(=O)CC(C)(C)C)cc2c(c1C)OC(C)(C)C2c1cccs1 (stereo unspecified)
113 to 115 °C | COC(=O)c1nc(-c2cc(N(C)C)c(Cl)cc2F)cc(N)c1Cl
248 to 250 °C | CCN1CCc2ccc(Nc3ncc(Cl)c(N[C@@H]4CCCC[C@H]4NC(C)=O)n3)cc2CC1
152 to 153 °C | NC(=O)c1ccc(CCBr)cc1
129 °C | Cc1c(NC(=O)c2ccc(OCC3CCOC3)cc2)ccc2cc(CNCC(C)(C)C)cnc12 (stereo unspecified)
132 to 133 °C | CCOc1nn(Cc2ccc(Cl)cc2Cl)cc1CCCOc1cc(CCC(=O)O)n(-c2ccccc2)n1
146 to 148 °C | COc1ccc(C2Sc3c(ccc4ccccc34)N(CCN(C)C)C(=O)C2OC(=O)c2ccc(O)c(O)c2)cc1 (stereo unspecified)
127 to 129 °C | CCCCC1OC(=O)c2cc(NC=O)ccc21 (stereo unspecified)
77 to 80 °C | CCOC(=O)c1c(OCC)nsc1NC(=O)N(CC)CC
188 to 190 °C | CN(C)CCC1CCCCN1C(=O)N1c2ccccc2C(=O)Nc2cccnc21 (stereo unspecified)
233 to 235 °C | Cn1c2c(c3cccc(F)c31)C(=O)NCCC2
162 to 163 °C | O=C1NC(=S)SC1=Cc1ccc(COc2ccccc2CCc2ccccc2)cc1
129 to 130 °C | O=C(NCc1ccccc1)OCc1noc(-c2ccc(CN3CCCCCC3)s2)n1
125 to 126 °C | ON=Cc1cc(Cl)ccc1O

Compound | melting point
CN(C)C1(c2ccccc2)CCC(CNC(=O)N2CCC(c3c[nH]c4ccccc34)C2)CC1 (stereo unspecified) | 103 to 106 °C
CC(C)(C)NCC(O)c1cc(Cl)c(N)c([N+](=O)[O-])c1 (stereo unspecified) | 148 to 149 °C
CNC(=O)Oc1ccc2[nH]cc(CCCN3CCN(c4ncncc4OC)CC3)c2c1 | 120 to 122 °C
CC1CCC2(C)C(=CCC3C4CC(O)C(=O)C4(C)CCC32)C1 (stereo unspecified) | 166 to 168 °C
COc1ccc(C(O)CN)cc1OCc1ccccc1 (stereo unspecified) | 101 to 102 °C
CSC(C)(C)C=NOC(=O)N(C)SN(C)C | 48 to 50 °C
C=CCc1cc(CNC)ccc1C#CC1(O)CN2CCC1CC2 (stereo unspecified) | 80 °C
CN1CC(CCN2CCOCC2)Oc2ncccc2C1=S (stereo unspecified) | 152 to 153 °C
